What was measured:
[1] = test system: differentiated 3T3-L1 adipocyte cells; experiment: mRNA expression of PPARγ and adipogenic markers by quantitative RT-PCR; format: cell-based; conditions: 7 days, 2 µM compound; for expression levels of adipogenic markers (adiponectin, adipsin, PPARγ, GLUT4): 50 nM rosiglitazone or 1 μM insulin, normalized to β-actin, DMSO = 1; for PPARγ mRNA expression, fold elevation: vs DMSO
Description: Figure 5 The analysis of PPARγ and selected adipogenic gene expression in differentiated 3T3-L1 adipocyte cells with quantitative RT-PCR. […] The expression values were normalized against a housekeeping gene, β-actin.
For the gene expression study, mature 3T3-L1 adipocytes were lysed 7 days after the induction of cellular differentiation. The total RNA samples were prepared according to the manufacturer's protocol (TRIzol reagent, Invitrogen Life Technologies, Carlsbad, CA, USA). The mRNA expression of the target genes was measured by quantitative RT-PCR with an iCycler iQ5 PCR Thermal Cycler (Bio-Rad Laboratories, Hercules, CA, USA). The primers for the adipogenesis-related genes, adiponectin, adipsin, GLUT4 and PPARγ, were designed using Primer 3 software (Table 1). Real-time PCR was performed according to the manufacturer’s protocol (SYBR-Green One-Step Quantitative RT-PCR). Briefly, 5 ng of total RNA, 50 nM of each primer, iScript RT enzyme and the universal SYBR Green reaction mix (Bio-Rad Laboratories) were mixed well in a final volume of 30 µL. All the PCR reactions were performed as follows: 1 cycle of 50 °C for 2 min and 95 °C for 10 min, followed by 40 cycles of 95 °C for 15 s and 60 °C for 1 min. The PCR products were subjected to a melting-curve analysis. The expression levels were normalized against a housekeeping gene, β-actin, and the expression levels of the genes in the DMSO treated cells were designated as 1.

[2] = test system: 3T3-L1 preadipocyte cells; experiment: Adipocyte differentiation assay, Oil Red O staining of lipid droplets; format: cell-based; conditions: for first appearance of lipid droplets after treatment: 3T3-L1 cells; for induction of 3T3-L1 differentiation into lipid-producing adipocytes: 2–50 µM, lower level than insulin and rosiglitazone; for ORO stained lipid droplets, fold higher than vehicle treated cells: compounds 2–50 µM
Description: Figure 4 The semi-quantification of lipid droplets produced by differentiated 3T3-L1 cells at day 7 after the compound treatment. The quantification was performed by dissolving the cells in isopropanol and measuring the absorbance read out at 510 nm. […] The symbol ** denotes a significant difference at p < 0.01 compared with DMSO (Tukey’s test, n = 3).
3T3-L1 and C2C12 cells were purchased from the American Type Culture Collection (Manassas, VA, USA). The 3T3-L1 and C2C12 cells were maintained in DMEM medium supplemented with 10% (v/v) bovine serum and 10% (v/v) fetal bovine serum (FBS), respectively. The differentiation of adipocytes was initiated two days after the cells reached confluence by adding 0.5 mM isobutyl methylxanthine (IBMX), 1 µM dexamethasone and 1 µg/mL insulin to DMEM containing 10% (v/v) FBS. Two days later, the differentiation medium was replaced by DMEM containing 10% (v/v) FBS and 1 µg/mL insulin. These differentiated cells were stabilized in DMEM + 10% (v/v) FBS for another 2 days. C2C12 myocytes were induced to differentiate by substituting 10% (v/v) FBS with 10% (v/v) horse serum once the cells reached confluence. Fresh differentiation medium was replaced every two days until the myotube formation was complete.
Adipocyte differentiation is one of the major cellular responses upon PPARγ activation. 3T3-L1 pre-adipocyte cells were seeded on 24-well plates at 5 × 10^4 cells per well. Two days after reaching confluence, the cells were triggered to differentiate by insulin (positive control), DMSO (negative control), TZD, and the three natural compounds isolated from S. macrophylla (6OA, DS and Sw). […] For visualization, lipid droplets were stained by Oil Red O (ORO). The trapped ORO between the lipid droplets was then dissolved in absolute isopropanol, and the absorbance of the dissolved ORO was semi-quantitatively measured by a SpectraMax M5 multi-detection microplate reader (Molecular Devices) at a wavelength of 510 nm.

[3] = test system: C2C12 muscle cells; experiment: GLUT4 translocation assay (immunofluorescence); format: cell-based; conditions: for GLUT4 translocation to the plasma membrane / time at which GLUT4 translocation occurs after treatment: 2 µM compound
Source text: (§1) Figure 6 The compounds affected the distribution of GLUT4 proteins and facilitated glucose uptake in the C2C12 muscle cells. The GLUT4 proteins were visualized via the green fluorescent FITC labeled-GLUT4 antibody. […] The white arrows show the presence of GLUT4 near the plasma membrane, and the red arrows show the presence of GLUT4 within the nucleus. The figures denote the time lapse (m = minutes) after treatment. The images were captured using a LSM710 laser scanning microscope with a 63X oil immersion objective (Carl Zeiss, Oberkochen, Germany); (F) The amount of 2-NBDG uptake in the cells after treatment 6OA, DS and Sw or insulin was quantified at OD 510 nm. The fold increase was plotted against the treated concentration of natural compounds. The symbol * denotes a significant difference at p < 0.05 compared with DMSO (Tukey’s test, n = 6), DMSO = 1.
The differentiated C2C12 muscle cells cultured in 8-well chamber slides were treated with DMSO, insulin and S. macrophylla compounds for 15, 30, 60 and 120 min in DMEM low glucose + 0.1% (w/v) BSA. The cells were then fixed with 4% (v/v) paraformaldehyde, washed with MAXwash^TM washing medium (Active Motif, Tokyo, Japan) and blocked with Maxblock^TM blocking medium (Active Motif). The cells were incubated with the GLUT4 antibody for 16 h at 4 °C and then with the fluorescent conjugated secondary antibody for 2 h at room temperature. 100 µL of Fluoroshield^TM with DAPI (Sigma-Aldrich, St. Louis, MO, USA) was added to each well and mounted with a cover slip for imaging.

[4] = biological target: T1, recombinant PPARγ (Homo sapiens, UniProt P37231); experiment: ELISA PPARγ-binding assay (ligand-dependent binding of PPARγ to p300 coactivator); conditions: highest binding; p300-coated plate, absorbance 405 nm
T1 construct: amino acid positions 107–477 for PPARγ; His tag (pET28a) (N); made in house; host or cells: E. coli BL21
T1 sequence (P37231 107-477 isoform P37231-2): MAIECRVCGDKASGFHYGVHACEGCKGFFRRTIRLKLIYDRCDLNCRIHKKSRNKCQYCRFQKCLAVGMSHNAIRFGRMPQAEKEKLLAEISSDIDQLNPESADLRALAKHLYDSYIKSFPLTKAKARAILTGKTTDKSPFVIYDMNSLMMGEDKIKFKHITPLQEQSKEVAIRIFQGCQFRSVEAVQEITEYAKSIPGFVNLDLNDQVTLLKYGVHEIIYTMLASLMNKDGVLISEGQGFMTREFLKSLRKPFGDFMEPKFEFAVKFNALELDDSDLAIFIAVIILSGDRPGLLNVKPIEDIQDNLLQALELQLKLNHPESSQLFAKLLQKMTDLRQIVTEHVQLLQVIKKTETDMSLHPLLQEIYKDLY
T1 sequence (Q09472 39-221 partner limits assumed): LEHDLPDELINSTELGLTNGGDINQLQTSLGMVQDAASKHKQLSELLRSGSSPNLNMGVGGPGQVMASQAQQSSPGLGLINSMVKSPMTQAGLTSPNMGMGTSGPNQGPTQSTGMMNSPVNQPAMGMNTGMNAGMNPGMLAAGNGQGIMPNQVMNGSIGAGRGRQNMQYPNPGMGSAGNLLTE
Description: The truncated p300 recombinant protein included a specific binding domain, LXXLL, for protein-protein interactions between p300 and PPARγ.
The ELISA binding assay used is based on the principle of binding between the ligand-dependent PPARγ and its coactivator. Briefly, 5 µg of purified recombinant p300, a PPARγ coactivator, was used to coat a 96-well microtitre plate in the presence of coating buffer (150 mM Na2CO3, 350 mM NaHCO3, pH 9.6). The plate was incubated for 2 h at room temperature. Nonspecific binding sites were blocked with 100 µL of blocking buffer [2% (w/v) BSA in 10 mM PBS, pH 7.2] for 2 h at room temperature. The recombinant PPARγ cell lysate was prepared by using the freeze/thaw cell lysis method [37]. […] These mixtures were added to the p300-coated 96-well plate, which was then incubated for 1 h at 37 °C. The presence of the PPARγ ligand led to the formation of a p300-PPARγ-ligand complex. The detection of this complex was performed through the addition of 100 µL of anti-PPARγ antibody (1:1000 dilutions) and incubation for 1 h at room temperature. Subsequently, 100 µL of the AP conjugated donkey anti-goat antibody (1:1000 dilutions) was added into each well, and the plates were at room temperature for 1 h. The pNPP substrate solution (100 µL) was added to each well and incubated for 1 h at room temperature in the dark. Finally, 2.0 N sulphuric acid (50 µL per well) was added to each well to stop the enzymatic reaction. The absorbance at 405 nm was detected with a microplate reader (SpectraMax M5, Molecular Devices, Sunnyvale, CA, USA). Throughout the procedures, the microtitre plate was washed three times with washing buffer [10 mM PBS, pH 7.2, containing 0.1% (v/v) Tween 20] after each incubation step.

[5] = test system: C2C12 muscle cells; experiment: Glucose uptake assay with 2-NBDG; format: cell-based; conditions: 2 µM compound, 60 min treatment
Source text: as §1
C2C12 cells were grown and differentiated in 96-well culture plates. The differentiated C2C12 muscle cells were treated with DMSO, insulin, and S. macrophylla compounds for 60 min in DMEM + 0.1% (w/v) BSA. After washing three times with Krebs-Ringer Phosphate H (KRPH) buffer + 0.1% (w/v) BSA, the cells were incubated with 100 μM 2-NBDG for 15 min. After washing three times with KRPH buffer + 0.1% (w/v) BSA, the uptake of 2-NBDG was observed under a fluorescence microscope, and the fluorescence of 2-NBDG was measured with a microplate reader (Perkin Elmer, Waltham, MA, USA).

[6] = test system: diabetic rats; conditions: diabetic rats ref 5; cited from earlier work

Row | Compound | fold increase of binding between PPARγ and coactivator compared to vehicle (DMSO) [4] [fold] | expression levels of adipogenic markers (adiponectin, adipsin, PPARγ, GLUT4) [1] | ORO stained lipid droplets, fold higher than vehicle (DMSO) ([2]; 1 µM insulin, day 7) [fold] | first appearance of lipid droplets after treatment [2] [days] | time at which GLUT4 translocation occurs after stimulation ([3]; 200 nM insulin) [min] | PPARγ mRNA expression, fold elevation [1] | glucose (2-NBDG) uptake [5] | induction of 3T3-L1 differentiation into lipid-producing adipocytes [2] | ORO stained lipid droplets, fold higher than vehicle treated cells ([2]; day 7) | GLUT4 translocation to the plasma membrane [3] | time at which GLUT4 translocation occurs after treatment [3] [min] | elevated cholesterol and triglyceride levels [6]
1 | Insulin: known adipocyte differentiation inducer, positive control [reference compound] |  | significantly increased | 4.8 | 3 | 15 |  |  |  |  |  |  | 
2 | COC(=O)C(OC(C)=O)C1C(C)(C)C(O)C2CC3=C4CC(=O)O[C@@H](c5ccoc5)[C@@]4(C)CCC3[C@@]1(C)C2=O (stereo partly shown) [6OA, 6-O-acetylswietenolide] | 50 | increase |  |  |  | five- to six | significant increase | induce 3T3-L1 cells differentiation into lipid-producing adipocytes | 1.3–1.6 fold | increase in GLUT4 translocation | 15 | 
3 | CN(CCOc1ccc(CC2SC(=O)NC2=O)cc1)c1ccccn1 (stereo not shown) [Rosiglitazone, rosiglitazone, reference compound] |  | increase |  | 5 |  |  |  |  |  |  |  | 

Continued, in another order:

Row | fold increase of binding between PPARγ and coactivator compared to vehicle (DMSO) [4] [fold] | Compound | expression levels of adipogenic markers (adiponectin, adipsin, PPARγ, GLUT4) [1] | ORO stained lipid droplets, fold higher than vehicle (DMSO) ([2]; 1 µM insulin, day 7) [fold] | first appearance of lipid droplets after treatment [2] [days] | time at which GLUT4 translocation occurs after stimulation ([3]; 200 nM insulin) [min] | PPARγ mRNA expression, fold elevation [1] | glucose (2-NBDG) uptake [5] | induction of 3T3-L1 differentiation into lipid-producing adipocytes [2] | ORO stained lipid droplets, fold higher than vehicle treated cells ([2]; day 7) | GLUT4 translocation to the plasma membrane [3] | time at which GLUT4 translocation occurs after treatment [3] [min] | elevated cholesterol and triglyceride levels [6]
4 | 38 | COC(=O)C(OC(C)=O)C1C(C)(C)C(OC(C)=O)C2CC3=C4CC(=O)O[C@@H](c5ccoc5)[C@@]4(C)CCC3[C@@]1(C)C2=O (stereo partly shown) [DS, diacetyl swietenolide] | increase |  |  |  | five- to six | significant increase | induce 3T3-L1 cells differentiation into lipid-producing adipocytes | 1.3–1.6 fold | increase in GLUT4 translocation | ≥ 60 | 
5 | 36 | C/C=C(\C)C(=O)OC1C2C=C3C(CC[C@@]4(C)C3CC(=O)O[C@H]4c3ccoc3)[C@@](C)(C2=O)C(C(O)C(=O)OC)C1(C)C (stereo partly shown) [Sw, swietenine] | increase |  |  |  | five- to six | significant increase | induce 3T3-L1 cells differentiation into lipid-producing adipocytes | 1.3–1.6 fold | increase in GLUT4 translocation | 15 | attenuate

Source: PMC6332226, “Potent PPARγ Ligands from Swietenia macrophylla Are Capable of Stimulating Glucose Uptake in Muscle Cells” (Molecules, 2015)
